Measurements as given in patent US10660877B2 (BRISTOL-MYERS SQUIBB COMPANY, priority 2016, dated 2020).
Like-named read-outs stand apart in the source and are kept apart here.

What was measured:
human TLR9 = human TLR9 (Homo sapiens (Human), UniProt Q9NR96); assay: TLR9 inhibition reporter assay (HEK-Blue cells, SEAP reporter, ODN2006 stimulation);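 note: compounds tested over 0.05 nM to 50 µM, 22 h incubation, inhibition taken as SEAP signal drop from agonist plus DMSO wells toward a known inhibitor control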
human TLR7 = human TLR7 (Homo sapiens (Human), UniProt Q9NYK1); assay: TLR7 inhibition reporter assay (HEK-Blue cells, SEAP reporter, gardiquimod stimulation); type: cell-based
human TLR8 = human TLR8 (Homo sapiens (Human), UniProt Q9NR97); assay: TLR8 inhibition reporter assay (HEK-Blue cells, SEAP reporter, R848 stimulation);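 note: compounds tested from 0.05 nM to 50 µM, 22 h at 37 °C, SEAP measured with HEK-Blue Detection, inhibition relative to agonist plus DMSO versus a known inhibitor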
[1] = read-out: TLR9 IC50, HEK-Blue cells overexpressing human TLR9, ODN2006 5 nM
[2] = HEK-Blue cells overexpressing human TLR7, gardiquimod 7.5 μM
[3] = read-out: TLR8 IC50, HEK-Blue cells overexpressing human TLR8, R848 15.9 μM
[4] = TLR9 IC50, HEK-Blue cells overexpressing human TLR9, ODN2006 5 nM
[5] = TLR8 IC50, HEK-Blue cells overexpressing human TLR8, R848 15.9 μM

human TLR9, sequence (Q9NR96 26-1032): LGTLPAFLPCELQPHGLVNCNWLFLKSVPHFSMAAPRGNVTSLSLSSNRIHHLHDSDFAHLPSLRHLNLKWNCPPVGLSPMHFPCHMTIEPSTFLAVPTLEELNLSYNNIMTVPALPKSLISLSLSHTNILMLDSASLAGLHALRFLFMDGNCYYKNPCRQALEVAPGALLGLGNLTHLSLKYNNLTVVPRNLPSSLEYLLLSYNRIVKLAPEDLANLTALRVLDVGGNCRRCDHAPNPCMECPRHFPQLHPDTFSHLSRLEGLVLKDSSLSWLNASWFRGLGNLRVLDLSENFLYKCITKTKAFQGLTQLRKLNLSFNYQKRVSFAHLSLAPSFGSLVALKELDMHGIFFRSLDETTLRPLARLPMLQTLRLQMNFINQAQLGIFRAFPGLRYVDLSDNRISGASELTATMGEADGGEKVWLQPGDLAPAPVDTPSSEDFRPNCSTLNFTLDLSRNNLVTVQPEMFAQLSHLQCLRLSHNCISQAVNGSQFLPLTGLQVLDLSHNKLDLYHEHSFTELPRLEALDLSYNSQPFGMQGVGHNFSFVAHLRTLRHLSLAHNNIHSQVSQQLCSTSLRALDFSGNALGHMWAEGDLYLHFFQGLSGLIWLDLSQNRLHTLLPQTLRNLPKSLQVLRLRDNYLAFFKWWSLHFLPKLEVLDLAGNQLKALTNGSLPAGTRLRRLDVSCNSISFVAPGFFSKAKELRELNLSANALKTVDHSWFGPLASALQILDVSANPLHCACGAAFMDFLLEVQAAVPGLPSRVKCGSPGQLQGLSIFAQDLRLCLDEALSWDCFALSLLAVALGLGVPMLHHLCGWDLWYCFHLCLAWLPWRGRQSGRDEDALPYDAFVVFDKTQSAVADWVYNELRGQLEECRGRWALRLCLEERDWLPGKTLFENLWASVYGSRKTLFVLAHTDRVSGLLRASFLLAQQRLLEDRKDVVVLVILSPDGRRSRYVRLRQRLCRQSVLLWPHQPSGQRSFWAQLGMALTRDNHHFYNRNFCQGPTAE
human TLR7, sequence (Q9NYK1 27-1049): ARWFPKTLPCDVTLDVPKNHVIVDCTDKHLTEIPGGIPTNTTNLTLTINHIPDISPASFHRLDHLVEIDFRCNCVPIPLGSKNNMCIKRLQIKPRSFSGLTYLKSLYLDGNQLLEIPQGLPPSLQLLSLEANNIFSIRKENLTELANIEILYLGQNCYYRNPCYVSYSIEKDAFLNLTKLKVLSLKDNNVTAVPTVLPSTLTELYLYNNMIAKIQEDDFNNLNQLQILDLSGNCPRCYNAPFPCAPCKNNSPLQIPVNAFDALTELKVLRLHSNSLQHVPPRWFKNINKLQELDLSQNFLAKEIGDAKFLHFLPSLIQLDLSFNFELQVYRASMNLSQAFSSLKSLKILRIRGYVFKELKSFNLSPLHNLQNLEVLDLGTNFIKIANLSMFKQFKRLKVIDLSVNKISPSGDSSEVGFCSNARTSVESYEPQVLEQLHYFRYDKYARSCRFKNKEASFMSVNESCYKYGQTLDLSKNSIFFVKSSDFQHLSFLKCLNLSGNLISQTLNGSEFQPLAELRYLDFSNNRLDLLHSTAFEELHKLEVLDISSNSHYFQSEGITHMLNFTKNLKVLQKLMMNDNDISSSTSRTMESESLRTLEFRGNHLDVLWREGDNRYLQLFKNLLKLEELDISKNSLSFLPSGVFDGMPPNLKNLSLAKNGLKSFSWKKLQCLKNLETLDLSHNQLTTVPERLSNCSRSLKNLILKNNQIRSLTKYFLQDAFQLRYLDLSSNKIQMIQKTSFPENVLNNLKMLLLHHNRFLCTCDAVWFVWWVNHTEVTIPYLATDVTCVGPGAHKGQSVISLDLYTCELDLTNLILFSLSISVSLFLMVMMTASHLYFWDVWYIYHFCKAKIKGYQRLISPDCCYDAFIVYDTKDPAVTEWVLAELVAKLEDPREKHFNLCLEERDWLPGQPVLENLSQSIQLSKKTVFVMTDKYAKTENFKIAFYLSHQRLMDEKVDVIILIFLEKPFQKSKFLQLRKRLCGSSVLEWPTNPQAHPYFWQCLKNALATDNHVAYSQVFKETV
human TLR8, sequence (Q9NR97 27-1041): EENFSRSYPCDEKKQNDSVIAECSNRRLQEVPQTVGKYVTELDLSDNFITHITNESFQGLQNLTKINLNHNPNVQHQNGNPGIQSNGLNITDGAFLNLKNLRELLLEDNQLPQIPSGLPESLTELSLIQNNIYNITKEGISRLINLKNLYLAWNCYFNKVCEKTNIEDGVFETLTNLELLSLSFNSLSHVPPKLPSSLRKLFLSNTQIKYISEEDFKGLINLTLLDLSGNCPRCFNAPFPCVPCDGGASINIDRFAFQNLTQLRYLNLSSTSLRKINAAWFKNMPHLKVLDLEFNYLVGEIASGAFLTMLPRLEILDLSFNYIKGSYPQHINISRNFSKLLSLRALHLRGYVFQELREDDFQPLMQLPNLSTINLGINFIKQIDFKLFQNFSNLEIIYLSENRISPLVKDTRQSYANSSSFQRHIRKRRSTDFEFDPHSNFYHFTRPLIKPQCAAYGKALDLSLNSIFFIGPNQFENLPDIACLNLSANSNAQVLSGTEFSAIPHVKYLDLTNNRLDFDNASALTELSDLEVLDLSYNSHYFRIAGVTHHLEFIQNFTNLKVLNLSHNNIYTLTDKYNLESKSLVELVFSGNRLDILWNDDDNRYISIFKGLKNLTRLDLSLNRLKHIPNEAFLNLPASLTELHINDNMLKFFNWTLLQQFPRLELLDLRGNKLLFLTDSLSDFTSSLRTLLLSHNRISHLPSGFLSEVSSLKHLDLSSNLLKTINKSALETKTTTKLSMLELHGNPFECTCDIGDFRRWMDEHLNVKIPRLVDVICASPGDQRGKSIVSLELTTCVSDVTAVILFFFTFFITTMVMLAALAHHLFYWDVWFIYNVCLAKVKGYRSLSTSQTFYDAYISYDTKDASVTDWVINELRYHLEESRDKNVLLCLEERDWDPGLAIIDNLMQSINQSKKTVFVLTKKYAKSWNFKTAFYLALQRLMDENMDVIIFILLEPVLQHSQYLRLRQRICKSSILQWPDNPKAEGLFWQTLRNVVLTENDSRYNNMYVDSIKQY

| Compound | IC50 (human TLR9; [1]) [nM] | IC50 (human TLR7; [2]) [nM] | IC50 (human TLR8; [3]) [nM] | IC50 (human TLR9; read-out: TLR9 IC50, HEK-Blue cells, ODN2006 5 nM) [nM] | IC50 (human TLR7; HEK-Blue cells, gardiquimod 7.5 μM) [nM] | IC50 (human TLR8; read-out: TLR8 IC50, HEK-Blue cells, R848 15.9 μM) [nM] | IC50 (human TLR9; [4]) [nM] | IC50 (human TLR8; [5]) [nM] |
| --- | --- | --- | --- | --- | --- | --- | --- | --- |
| Cc1cc(-c2[nH]c3ccc(C4CCN(CCC(F)(F)F)CC4)cc3c2C(C)C)cc(C)n1 [Example 677, 2-(2,6-dimethylpyridin-4-yl)-3-isopropyl-5-(1-(3,3,3-trifluoropropyl)piperidin-4-yl)-1H-indole] | 1690 | 3.4 | 6.7 | – | – | – | – | – |
| CCc1c(-c2ccnc(Cl)c2)[nH]c2ccc(C3CCNCC3)cc12 [Example 62, 2-(2-chloropyridin-4-yl)-3-ethyl-5-(piperidin-4-yl)-1H-indole] | 2100 | 22 | 19.4 | – | – | – | – | – |
| Cc1cc(-c2[nH]c3ccc(C4CCN(CC(C)C)CC4)cc3c2C(C)C)cc(C)n1 [Example 471, 2-(2,6-dimethylpyridin-4-yl)-5-(1-isobutylpiperidin-4-yl)-3-isopropyl-1H-indole] | 610 | 2.4 | 8 | – | – | – | – | – |
| Cc1cc(-c2[nH]c3ccc(C4CCNCC4)cc3c2C(C)C)cc(C)[n+]1[O-] [Example 56, 2-(2,6-dimethyl-1-(l1-oxidanyl)-1l4-pyridin-4-yl)-3-isopropyl-5-(piperidin-4-yl)-1H-indole] | 804 | 4.6 | 23.9 | – | – | – | – | – |
| Cc1cc(-c2[nH]c3ccc(C4CCN(Cc5nnc(C6CC6)o5)CC4)cc3c2C(C)C)c(F)cn1 [Example 698, 2-cyclopropyl-5-((4-(2-(5-fluoro-2-methylpyridin-4-yl)-3-isopropyl-1H-indol-5-yl)piperidin-1-yl)methyl)-1,3,4-oxadiazole] | 12400 | 54.2 | 37.6 | – | – | – | – | – |
| COc1cc(-c2[nH]c3ccc(C4CCN(C5CCN(CC(C)C)CC5)CC4)cc3c2C)ccn1 [Example 781, 5-(1′-isobutyl-[1,4′-bipiperidin]-4-yl)-2-(2-methoxypyridin-4-yl)-3-methyl-1H-indole] | 206 | 577 | 316 | – | – | – | – | – |
| CCc1cc(-c2[nH]c3ccc(C4CCNCC4)cc3c2C(C)C)c(F)cn1 [Example 482, 2-(2-ethyl-5-fluoropyridin-4-yl)-3-isopropyl-5-(piperidin-4-yl)-1H-indole] | 3690 | 10.6 | 19.2 | – | – | – | – | – |
| Cc1cc(-c2[nH]c3ccc(C4CCN(C(=O)CN(C)C)CC4)cc3c2C(C)C)c(F)cn1 [Example 586, 2-(dimethylamino)-1-(4-(2-(5-fluoro-2-methylpyridin-4-yl)-3-isopropyl-1H-indol-5-yl)piperidin-1-yl)ethan-1-one] | 3040 | 2.6 | 6.2 | – | – | – | – | – |
| CCc1c(-c2ccncc2)[nH]c2ccc(C3CCNCC3)cc12 [Example 60, 3-ethyl-5-(piperidin-4-yl)-2-(pyridin-4-yl)-1H-indole] | 671 | 96.3 | 36.8 | – | – | – | – | – |
| Cc1cc(-c2[nH]c3ccc(C4CCN(C(=O)CN5CCOC5=O)CC4)cc3c2C(C)C)cc(C)n1 [Example 164, 3-(2-(4-(2-(2,6-dimethylpyridin-4-yl)-3-isopropyl-1H-indol-5-yl)piperidin-1-yl)-2-oxoethyl) oxazolidin-2-one] | 14200 | 4.6 | 39.7 | – | – | – | – | – |
| Cc1cc(-c2[nH]c3ccc(C4CCN(Cc5ccn(C)n5)CC4)cc3c2C(C)C)cc(C)n1 [Example 445, 2-(2,6-dimethylpyridin-4-yl)-3-isopropyl-5-(1-((1-methyl-1H-pyrazol-3-yl)methyl)piperidin-4-yl)-1H-indole] | 314 | 3.6 | 0.7 | – | – | – | – | – |
| Cc1cc(-c2[nH]c3ccc(C4CCNCC4)cc3c2C(C)C)c(Br)c(C)n1 [Example 40, 2-(3-bromo-2,6-dimethylpyridin-4-yl)-3-isopropyl-5-(piperidin-4-yl)-1H-indole] | 1480 | 16.5 | 4.1 | – | – | – | – | – |
| Cc1cc(-c2[nH]c3cc(F)c(C4CCN(CC(=O)N(C)C)CC4)cc3c2C(C)C)c(F)cn1 [Example 836, 2-(4-(6-fluoro-2-(5-fluoro-2-methylpyridin-4-yl)-3-isopropyl-1H-indol-5-yl)piperidin-1-yl)-N,N-dimethylacetamide] | – | – | – | 4730 | 3.9 | 11.8 | – | – |
| Cc1cc(-c2[nH]c3ccc(C4CCN(C(=O)c5ccon5)CC4)cc3c2C(C)C)cc(C)n1 [Example 203, (4-(2-(2,6-dimethylpyridin-4-yl)-3-isopropyl-1H-indol-5-yl)piperidin-1-yl)(isoxazol-3-yl)methanone] | 3180 | 2 | 113 | – | – | – | – | – |
| Cc1cc(-c2[nH]c3ccc(C4CCN(C(=O)CNC56CC7CC(CC(C7)C5)C6)CC4)cc3c2C(C)C)cc(C)n1 [Example 342, 2-(adamantan-1-ylamino)-1-(4-(2-(2,6-dimethylpyridin-4-yl)-3-isopropyl-1H-indol-5-yl)piperidin-1-yl)ethan-1-one] | 656 | 26.2 | 67.1 | – | – | – | – | – |
| Cc1cc(-c2[nH]c3ccc(C4CCN(C(=O)[C@@H](N)CCCN)CC4)cc3c2C(C)C)ccn1 [Example 577, (S)-2,5-diamino-1-(4-(3-isopropyl-2-(2-methylpyridin-4-yl)-1H-indol-5-yl)piperidin-1-yl)pentan-1-one] | 8130 | 121 | 58.4 | – | – | – | – | – |
| Cc1cc(-c2[nH]c3ccc(C4CCN(C(=O)OC(C)C)CC4)cc3c2C(C)C)ccn1 [Example 559, isopropyl 4-(3-isopropyl-2-(2-methylpyridin-4-yl)-1H-indol-5-yl)piperidine-1-carboxylate] | 13500 | 500 | 878 | – | – | – | – | – |
| Cc1cc(-c2[nH]c3ccc(C4CCNCC4(F)F)cc3c2C(C)C)cc(C)n1 (single isomer, unassigned) [Example 489A, 5-(3,3-difluoropiperidin-4-yl)-2-(2,6-dimethylpyridin-4-yl)-3-isopropyl-1H-indole] | – | 1.1 | – | – | – | – | 849 | 13.9 |
| Cc1cc(-c2[nH]c3ccc(C4CCN(C(=O)C5CCNC5)CC4)cc3c2C(C)C)cc(C)n1 (single isomer, unassigned) [Example 181, (4-(2-(2,6-dimethylpyridin-4-yl)-3-isopropyl-1H-indol-5-yl)piperidin-1-yl)(pyrrolidin-3-yl) methanone] | – | 2.6 | – | – | – | – | 537 | 21.5 |
| COc1cc(-c2[nH]c3ccc(C4CCN(C5CCN(C6CCCC6)CC5)CC4)cc3c2C(C)C)ccn1 [Example 802, 5-(1′-cyclopentyl-[1,4′-bipiperidin]-4-yl)-3-isopropyl-2-(2-methoxypyridin-4-yl)-1H-indole] | 487 | 389 | 99.3 | – | – | – | – | – |
| Cc1cc(-c2[nH]c3ccc(C4CCN(C(=O)[C@@H](N)CCCCN)CC4)cc3c2C(C)C)ccn1 [Example 579, (S)-2,6-diamino-1-(4-(3-isopropyl-2-(2-methylpyridin-4-yl)-1H-indol-5-yl)piperidin-1-yl)hexan-1-one] | 4360 | 201 | 98 | – | – | – | – | – |
| Cc1cc(-c2[nH]c3ccc(C4CCN(Cc5nncn5C)CC4)cc3c2C(C)C)c(F)cn1 [Example 737, 2-(5-fluoro-2-methylpyridin-4-yl)-3-isopropyl-5-(1-((4-methyl-4H-1,2,4-triazol-3-yl)methyl)piperidin-4-yl)-1H-indole] | > 50000 | 14.5 | 5.1 | – | – | – | – | – |
| CCc1c(-c2cc(C)nc(C)c2)[nH]c2ccc(C3CCNCC3)cc12 [Example 2, 2-(2,6-dimethylpyridin-4-yl)-3-ethyl-5-(piperidin-4-yl)-1H-indole] | 248 | 4.7 | 11.2 | – | – | – | – | – |
| Cc1cc(-c2[nH]c3ccc(C4CCN(C(=O)C5CC(=O)N(C)C5)CC4)cc3c2C(C)C)cc(C)n1 (stereo not drawn) [Example 102, 4-(4-(2-(2,6-dimethylpyridin-4-yl)-3-isopropyl-1H-indol-5-yl)piperidine-1-carbonyl)-1-methylpyrrolidin-2-one] | – | 7.5 | – | – | – | – | 36200 | 72.6 |
| Cc1cc(-c2[nH]c3ccc(C4CCN(C(=O)[C@@H]5C[C@H](O)CCN5)CC4)cc3c2C(C)C)ccn1 [Example 581, ((2S,4R)-4-hydroxypiperidin-2-yl)(4-(3-isopropyl-2-(2-methylpyridin-4-yl)-1H-indol-5-yl)piperidin-1-yl)methanone] | 967 | 10.6 | 6.9 | – | – | – | – | – |
| Cc1cc(-c2[nH]c3ccc(C4CCN(C(=O)[C@@H]5CCC[C@H](N)C5)CC4)cc3c2C(C)C)ccn1 [Example 576, ((1R,3S)-3-aminocyclohexyl)(4-(3-isopropyl-2-(2-methylpyridin-4-yl)-1H-indol-5-yl)piperidin-1-yl)methanone] | 731 | 15.1 | 24.1 | – | – | – | – | – |
| Cc1cc(-c2[nH]c3ccc(C4CCN(C(=O)CNCC(C)(C)C)CC4)cc3c2C(C)C)cc(C)n1 [Example 337, 1-(4-(2-(2,6-dimethylpyridin-4-yl)-3-isopropyl-1H-indol-5-yl)piperidin-1-yl)-2-(neopentylamino)ethan-1-one] | 467 | 6.7 | 18.3 | – | – | – | – | – |
| Cc1cc(-c2[nH]c3ccc(C4CCN(S(=O)(=O)c5cccnc5)CC4)cc3c2C(C)C)ccn1 [Example 543, 3-isopropyl-2-(2-methylpyridin-4-yl)-5-(1-(pyridin-3-ylsulfonyl)piperidin-4-yl)-1H-indole] | 9750 | 119 | 206 | – | – | – | – | – |
| Cc1cc(-c2[nH]c3ccc(C4CCN(C5CCN(C(C)C)CC5)CC4)cc3c2C(C)C)ccn1 [Example 701, 3-isopropyl-5-(1′-isopropyl-[1,4′-bipiperidin]-4-yl)-2-(2-methylpyridin-4-yl)-1H-indole] | 163 | 6.5 | 5.8 | – | – | – | – | – |
